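These data come from cells grown in 96-well plates and exposed to compound for 48 hours at five concentrations. GI50: concentration for 50% inhibition of growth. TGI: total growth inhibition.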
How the values were obtained:
Assay in all cases: NCI-60 cell line screen, 48 h
RPMI-8226 leukemia = test system: RPMI-8226 leukemia
LOX IMVI melanoma = test system: LOX IMVI melanoma
M14 melanoma = test system: M14 melanoma
IGROV1 ovarian = test system: IGROV1 ovarian
OVCAR-3 ovarian = test system: OVCAR-3 ovarian
COLO 205 colon = test system: COLO 205 colon
HT29 colon = test system: HT29 colon
UACC-62 melanoma = test system: UACC-62 melanoma
HCC-2998 colon = test system: HCC-2998 colon
KM12 colon = test system: KM12 colon
OVCAR-4 ovarian = test system: OVCAR-4 ovarian
A498 renal = test system: A498 renal
SNB-19 CNS = test system: SNB-19 CNS
NCI-H522 lung = test system: NCI-H522 lung
SF-295 CNS = test system: SF-295 CNS
T-47D breast = test system: T-47D breast
HOP-92 NSCLC = test system: HOP-92 NSCLC
MDA-MB-435 = test system: MDA-MB-435
OVCAR-8 ovarian = test system: OVCAR-8 ovarian
HCT-116 colon = test system: HCT-116 colon
HOP-62 NSCLC = test system: HOP-62 NSCLC
MALME-3M melanoma = test system: MALME-3M melanoma
MDA-MB-231 breast = test system: MDA-MB-231 breast
UACC-257 melanoma = test system: UACC-257 melanoma
ACHN renal = test system: ACHN renal
SK-OV-3 ovarian = test system: SK-OV-3 ovarian
MOLT-4 leukemia = test system: MOLT-4 leukemia
CCRF-CEM leukemia = test system: CCRF-CEM leukemia
HS 578T breast = test system: HS 578T breast

`CCc1ccc(C2=C(O)C(=O)C(c3ccc(CC)cc3)=C(O)C2=O)cc1` gave a GI50 (RPMI-8226 leukemia) of 1.81 µM, a TGI (RPMI-8226 leukemia) of 6.43 µM and a GI50 (LOX IMVI melanoma) of 2.84 µM. The TGI (LOX IMVI melanoma) was 12.1 µM, the GI50 (M14 melanoma) was 1.74 µM and the TGI (M14 melanoma) was 4.54 µM. The GI50 (IGROV1 ovarian) was 1.59 µM, the TGI (IGROV1 ovarian) was 3.54 µM and the GI50 (OVCAR-3 ovarian) was 1.57 µM. It also gave a TGI (OVCAR-3 ovarian) of 3.13 µM, a GI50 (COLO 205 colon) of 1.69 µM and a TGI (COLO 205 colon) of 5.36 µM. It also gave a GI50 (HT29 colon) of 2.34 µM, a TGI (HT29 colon) of 7.79 µM and a GI50 (UACC-62 melanoma) of 1.64 µM. The TGI (UACC-62 melanoma) was 3.63 µM, the GI50 (HCC-2998 colon) was 2.09 µM and the TGI (HCC-2998 colon) was 5.75 µM. The GI50 (KM12 colon) was 1.69 µM, the TGI (KM12 colon) was 4.04 µM and the GI50 (OVCAR-4 ovarian) was 2.18 µM. For the same compound, the TGI (OVCAR-4 ovarian) was 7.75 µM, the GI50 (A498 renal) was 1.74 µM and the TGI (A498 renal) was 5.36 µM. For the same compound, the GI50 (SNB-19 CNS) was 2.17 µM, the TGI (SNB-19 CNS) was 8.03 µM and the GI50 (NCI-H522 lung) was 1.51 µM. The TGI (NCI-H522 lung) was 4.61 µM, the GI50 (SF-295 CNS) was 1.93 µM and the TGI (SF-295 CNS) was 6.7 µM. For the same compound, the GI50 (T-47D breast) was 1.9 µM, the TGI (T-47D breast) was 6.65 µM and the GI50 (HOP-92 NSCLC) was 1.24 µM. It also gave a TGI (HOP-92 NSCLC) of 4.33 µM, a GI50 (MDA-MB-435) of 1.89 µM and a TGI (MDA-MB-435) of 6.72 µM. The GI50 (OVCAR-8 ovarian) was 2.95 µM, the TGI (OVCAR-8 ovarian) was 10.2 µM and the GI50 (HCT-116 colon) was 2.24 µM. The TGI (HCT-116 colon) was 6 µM, the GI50 (HOP-62 NSCLC) was 1.5 µM and the TGI (HOP-62 NSCLC) was 3.42 µM. It also gave a GI50 (MALME-3M melanoma) of 1.28 µM, a TGI (MALME-3M melanoma) of 5.4 µM and a GI50 (MDA-MB-231 breast) of 2.53 µM. The TGI (MDA-MB-231 breast) was 11 µM, the GI50 (UACC-257 melanoma) was 2.95 µM and the TGI (UACC-257 melanoma) was 11.1 µM. It also gave a GI50 (ACHN renal) of 2.01 µM, a TGI (ACHN renal) of 6.28 µM and a GI50 (SK-OV-3 ovarian) of 2.05 µM. The TGI (SK-OV-3 ovarian) was 5.66 µM, the GI50 (MOLT-4 leukemia) was 1.81 µM and the TGI (MOLT-4 leukemia) was 4.15 µM. The GI50 (CCRF-CEM leukemia) was 1.37 µM, the TGI (CCRF-CEM leukemia) was 5.72 µM and the GI50 (HS 578T breast) was 1.72 µM. It also gave a TGI (HS 578T breast) of 6.58 µM.

From PubChem BioAssay (NCI)
